Data: patent US5591821A (priority 1993, dated 1997)

Molecular target: GVIA high affinity site, the N-type Ca^2+ channel (Rattus norvegicus, UniProt Q02294)
Type: binding

Sequence of GVIA high affinity site, the N-type Ca^2+ channel (Q02294 whole entry, looked up): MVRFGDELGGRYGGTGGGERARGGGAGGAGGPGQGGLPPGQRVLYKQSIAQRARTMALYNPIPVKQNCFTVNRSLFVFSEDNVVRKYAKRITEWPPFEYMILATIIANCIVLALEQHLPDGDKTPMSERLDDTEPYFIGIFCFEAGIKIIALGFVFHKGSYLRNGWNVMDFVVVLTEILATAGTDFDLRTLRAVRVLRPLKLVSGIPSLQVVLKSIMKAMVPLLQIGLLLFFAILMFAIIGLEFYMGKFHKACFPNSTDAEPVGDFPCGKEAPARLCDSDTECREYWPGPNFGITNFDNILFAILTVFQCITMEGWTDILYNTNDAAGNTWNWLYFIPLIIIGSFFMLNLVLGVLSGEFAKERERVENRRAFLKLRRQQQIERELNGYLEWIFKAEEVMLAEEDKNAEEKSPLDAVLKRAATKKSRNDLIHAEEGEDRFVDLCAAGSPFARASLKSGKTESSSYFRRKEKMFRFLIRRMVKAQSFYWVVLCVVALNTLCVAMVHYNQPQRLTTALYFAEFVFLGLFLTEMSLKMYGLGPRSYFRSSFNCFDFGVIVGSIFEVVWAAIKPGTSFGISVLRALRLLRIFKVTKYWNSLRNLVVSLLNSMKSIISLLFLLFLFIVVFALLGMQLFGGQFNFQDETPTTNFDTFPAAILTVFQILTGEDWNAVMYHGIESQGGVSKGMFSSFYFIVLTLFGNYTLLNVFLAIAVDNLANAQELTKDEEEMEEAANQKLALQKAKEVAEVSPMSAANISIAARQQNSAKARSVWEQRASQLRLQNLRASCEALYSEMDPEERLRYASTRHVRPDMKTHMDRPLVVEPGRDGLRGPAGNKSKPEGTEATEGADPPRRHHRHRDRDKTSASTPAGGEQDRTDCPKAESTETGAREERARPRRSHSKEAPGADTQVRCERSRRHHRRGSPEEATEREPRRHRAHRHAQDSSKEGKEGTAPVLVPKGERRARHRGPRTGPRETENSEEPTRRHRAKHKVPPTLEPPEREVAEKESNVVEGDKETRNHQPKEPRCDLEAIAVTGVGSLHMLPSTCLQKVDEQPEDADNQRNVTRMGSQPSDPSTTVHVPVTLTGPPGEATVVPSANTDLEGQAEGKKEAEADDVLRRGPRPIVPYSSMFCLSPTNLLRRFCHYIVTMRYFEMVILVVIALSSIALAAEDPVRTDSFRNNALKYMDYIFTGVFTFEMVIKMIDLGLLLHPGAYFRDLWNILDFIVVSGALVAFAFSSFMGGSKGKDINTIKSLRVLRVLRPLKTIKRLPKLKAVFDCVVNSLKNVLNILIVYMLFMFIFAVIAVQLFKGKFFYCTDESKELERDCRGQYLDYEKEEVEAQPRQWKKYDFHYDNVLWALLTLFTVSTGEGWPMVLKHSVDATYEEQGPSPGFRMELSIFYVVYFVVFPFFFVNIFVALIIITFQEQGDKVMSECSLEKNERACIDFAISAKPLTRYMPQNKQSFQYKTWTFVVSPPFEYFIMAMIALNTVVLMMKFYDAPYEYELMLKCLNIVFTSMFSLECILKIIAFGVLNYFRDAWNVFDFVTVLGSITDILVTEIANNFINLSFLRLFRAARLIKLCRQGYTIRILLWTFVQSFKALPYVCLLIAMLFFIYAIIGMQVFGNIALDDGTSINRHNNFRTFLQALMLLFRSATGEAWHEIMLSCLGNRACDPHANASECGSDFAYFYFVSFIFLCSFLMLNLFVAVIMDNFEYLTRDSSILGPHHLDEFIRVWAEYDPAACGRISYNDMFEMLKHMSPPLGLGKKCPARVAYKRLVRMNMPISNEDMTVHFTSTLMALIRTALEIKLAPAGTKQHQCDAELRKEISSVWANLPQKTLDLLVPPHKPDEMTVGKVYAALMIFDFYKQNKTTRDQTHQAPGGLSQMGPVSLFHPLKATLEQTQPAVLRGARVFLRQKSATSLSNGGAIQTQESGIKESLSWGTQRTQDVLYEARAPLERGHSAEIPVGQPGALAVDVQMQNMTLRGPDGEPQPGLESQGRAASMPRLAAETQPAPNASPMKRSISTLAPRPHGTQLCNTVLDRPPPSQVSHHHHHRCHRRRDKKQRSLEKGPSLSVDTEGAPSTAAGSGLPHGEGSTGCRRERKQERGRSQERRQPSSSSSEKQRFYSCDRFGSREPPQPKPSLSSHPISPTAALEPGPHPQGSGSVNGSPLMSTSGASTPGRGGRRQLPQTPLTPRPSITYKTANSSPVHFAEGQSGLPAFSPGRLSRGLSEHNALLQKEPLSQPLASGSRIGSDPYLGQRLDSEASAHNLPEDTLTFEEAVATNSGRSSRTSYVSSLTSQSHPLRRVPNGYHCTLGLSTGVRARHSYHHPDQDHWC

## ω-agatoxin IVA
  Competition for / displacement of 125I-GVIA binding: did not
